Assay results from patent publication US9315475B2 (MERCK SHARP & DOHME CORP., priority 2011, dated 2016).

What was measured:
[1] = biological target: T1, wildtype HIV-1 protease (Human immunodeficiency virus type 1 group M subtype B, UniProt P04585); test: Assay for inhibition of microbial expressed HIV protease (Pepcleav); assay type: biochemical; conditions: wild type HIV-1 protease expressed in E. coli, peptide substrate, pH 5.5; mean of at least two independent experiments; read-out: Pepcleav
T1 construct: the wildtype HIV-1 protease (which was expressed in Escherichia coli); made in house; host or cells: Escherichia coli
Outline: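 E. coli-expressed wild-type HIV-1 protease (20 pM) preincubated 30 min at room temperature with inhibitor in pH 5.5 sodium acetate/NaCl/BSA buffer, then 400 μM Val-Ser-Gln-Asn-(βnaphthyl)Ala-Pro-Ile-Val added for 1 h at 30 °C. Quenched with formic acid; product quantified by LC-MS/MS peak area, indinavir internal standard.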

[2] = system: HIV-1 (H9IIIB strain); test: Antiviral acute infection assay in cell culture (Spread); assay type: cell-based; conditions: Human immunodeficiency virus 1, T-lymphoid, HIV-1 H9IIIB infection of MT-4 human T-lymphoid cells in 10% FBS; mean of at least two independent experiments
Excerpt: Antiviral Assays in Cell Culture (“Spread”)
Acute Infection Assay (“Spread”) data were generated using HIV-1 (H9IIIB strain) infection of MT-4 human T-lymphoid cells in 10% FBS, and according to the methods disclosed by J. P. Vacca et al, “L-735,524: An orally bioavailable human immunodeficiency virus type 1 protease inhibitor,” Proc. Natl. Acad. Sci. USA, Vol. 91, pp. 4096-4100 (April 1994).

Compound	IC50 [1] [nM]	EC50 [2] [nM]
CS(=O)(=O)c1cccc([C@@H](CC(=O)Nc2cccc(F)c2CC[C@@H]2CN[C@H](COC(=O)NCC(F)(F)F)CO2)c2ccc(Cl)cc2)c1 [Example 164, [(3S,6R)-6-{2-[2-({(3S)-3-(4-chlorophenyl)-3-[3-(methylsulfonyl)phenyl]propanoyl}amino)-6-fluorophenyl]ethyl}morpholin-3-yl] methyl (2,2,2-trifluoroethyl)carbamate]	3.4	63
NC(=O)OC[C@@H]1CO[C@H](CCc2c(F)cccc2NC(=O)C[C@@H](c2ccc(F)cc2)c2ccc(F)cc2F)CN1 [Example 156, {(3S,6R)-6-[2-(2-{[(3S)-3-(2,4-difluorophenyl)-3-(4-fluorophenyl)propanoyl]amino}-6-fluoro-phenyl)ethyl]morpholin-3-yl}methyl carbamate]	10	26
N[C@H](C(=O)Nc1cc(F)ccc1CC[C@@H]1CN[C@H](COC(=O)NCC(F)F)CO1)C(c1ccccc1)c1ccccc1 [Example 237, N-(2-{2-[(2R,5S)-5-({[(2,2-difluoroethyl)carbamoyl]oxy}methyl)morpholin-2-yl]ethyl}-5-fluorophenyl)-β-phenyl-L-phenylalaninamide]	69	190
N[C@H](C(=O)Nc1cncc(F)c1CC[C@@H]1CN[C@H](COC(=O)NCC(F)(F)F)CO1)[C@@H](c1ccc(F)cc1)c1cccc(C(F)(F)F)c1 [Example 272, (βS)-4-fluoro-N-(5-fluoro-4-{2-[(2R,5S)-5-({[(2,2,2-trifluoroethyl)carbamoyl]oxy}methyl)morpholin-2-yl]ethyl}pyridin-3-yl)-β-[3-(trifluoromethyl)phenyl]-L-phenylalaninamide]	2	32
N[C@H](C(=O)Nc1cncc(F)c1CC[C@@H]1CN[C@H](C(=O)Nc2ccccc2O)CO1)C(c1ccc(F)cc1)c1ccc(F)cc1 [Example 271, 4-fluoro-N-[5-fluoro-4-(2-{(2R,5S)-5-[(2-hydroxyphenyl)carbamoyl]morpholin-2-yl}ethyl)pyridin-3-yl]-β-(4-fluorophenyl)-L-phenylalaninamide]	2	810
N[C@H](C(=O)Nc1cncc(F)c1CC[C@@H]1CN[C@H](COC(=O)NCc2cc3ccccc3cn2)CO1)C(c1ccc(F)cc1)c1ccc(F)cc1 [Example 239, {(3S,6R)-6-[2-(3-fluoro-5-{[4-fluoro-β-(4-fluorophenyl)-L-phenylalanyl]amino}pyridin-4-yl)ethyl]morpholin-3-yl}methyl (isoquinolin-3-ylmethyl)carbamatc]	45	420
O=C(C[C@@H](c1ccc(F)cc1)c1cc(F)ccc1F)Nc1cncc(F)c1CC[C@@H]1CN[C@H](COC(=O)NCC(F)(F)F)CO1 [Example 149, {(3S,6R)-6-[2-(3-{[(3S)-3-(2,5-difluorophenyl)-3-(4-fluorophenyl)propanoyl]amino}-5-fluoropyridin-4-yl)ethyl]morpholin-3-yl}methyl (2,2,2-trifluoroethyl)carbamate]	1.4	14
O=C(C[C@@H](c1ccc(F)cc1)c1cc(F)cc(F)c1)Nc1cncc(F)c1CC[C@@H]1CNC(COC(=O)NCC(F)(F)F)CO1 (stereo in doubt) [Example 89, (3S)-3-(4-Fluorophenyl)-3-(3,5-difluorophenyl)-N-(5-fluoro-4-(2-((2R,5R)-5-(2,2,2-trifluoroethylaminocarbonyloxymethyl)morpholine-2-yl)ethyl)pyridin-3-yl)propanamide]	1.4	13
N[C@H](C(=O)Nc1cncc(F)c1CC[C@@H]1CN[C@H](COC(=O)NCC(F)(F)F)CO1)[C@@H](c1ccc(F)cc1)c1cc(F)ccc1F [Example 268, (βS)-2,5-difluoro-β-(4-fluorophenyl)-N-(5-fluoro-4-{2-[(2R,5S)-5-({[(2,2,2-trifluoroethyl)carbamoyl]oxy}methyl)morpholin-2-yl]ethyl}pyridin-3-yl)-L-phenylalaninamide]	2.8	44
COc1ccc([C@H](CC(=O)Nc2cccc(F)c2CC[C@@H]2CN[C@H](COC(=O)NCC(F)(F)F)CO2)c2ccc(F)cc2)cc1 [Example 151, {(3S,6R)-6-[2-(2-fluoro-6-{[(3S)-3-(4-fluorophenyl)-3-(4-methoxy-phenyl)propanoyl]amino}phenyl)ethyl]morpholin-3-yl}methyl (2,2,2-trifluoroethyl)carbamate]	100	290
N[C@H](C(=O)Nc1cncc(F)c1CC[C@@H]1CN[C@H](COC(=O)NCC2CCCCO2)CO1)C(c1ccc(F)cc1)c1ccc(F)cc1 (stereo partly drawn) [Example 213, 4-fluoro-β-(4-fluorophenyl)-N-(5-fluoro-4-{2-[(2R,5S)-5-({[(tetrahydro-2H-pyran-2-ylmethyl)carbamoyl]oxy}methyl)morpholin-2-yl]ethyl}pyridin-3-yl)-L-phenylalaninamide]	6.1	61
O=C(NCC(F)(F)F)OC[C@@H]1CO[C@H](CCc2c(F)cncc2NC(=O)[C@@H](NC(=O)OC2CCCC2)C(c2ccc(F)cc2)c2ccc(F)cc2)CN1 [Example 278, Nα-[(cyclopentyloxy)carbonyl]-4-fluoro-β-(4-fluorophenyl)-N-(5-fluoro-4-{2-[(2R,5S)-5-({[(2,2,2-trifluoroethyl)carbamoyl]oxy}methyl)morpholin-2-yl]ethyl}pyridin-3-yl)-L-phenylalaninamide]	3.2	38
CCNC(=O)OC[C@@H]1CO[C@H](CCc2c(F)cncc2NC(=O)[C@@H](N)C(c2ccc(F)cc2)c2ccc(F)cc2)CN1 [Example 207, N-(4-{2-[(2R,5S)-5-{[(ethylcarbamoyl)oxy]methyl}morpholin-2-yl]ethyl}-5-fluoropyridin-3-yl)-4-fluoro-β-(4-fluorophenyl)-L-phenylalaninamide]	20	110
COC(=O)N[C@H](C(=O)Nc1cccc(F)c1CC[C@@H]1CN[C@H](COC(=O)NCC(C)(C)O)CO1)C(c1ccc(F)cc1)c1ccc(F)cc1 [Example 121, 4-Fluoro-N-(3-fluoro-2-{2-[(2R,5S)-5-({[(2-hydroxy-2-methylpropyl)carbamoyl]oxy}methyl)morpholin-2-yl]ethyl}phenyl)-β-(4-fluorophenyl)-Nα-(methoxycarbonyl)-L-phenylalaninamide]	2.5	10
COC(=O)N[C@H](C(=O)Nc1cccc(F)c1CC[C@@H]1CN[C@H](COC(=O)NCC(F)(F)F)CO1)[C@@H](c1ccc(F)cc1)c1cccc(OC(F)(F)F)c1 [Example 303, (βS)-4-fluoro-N-(3-fluoro-2-{2-[(2R, 5S)-5-({[(2,2,2-trifluoroethyl)carbamoyl]oxy}methyl)morpholin-2-yl]ethyl}phenyl)-Nα-(methoxy-carbonyl)-β-[3-(trifluoromethoxy)phenyl]-L-phenylalaninamide]	5.3	24
O=C(CC(c1ccc(F)cc1)c1ccc(F)cc1)Nc1cncc(F)c1CC[C@@H]1CN[C@H](COC(=O)NC(CO)C(F)(F)F)CO1 (stereo partly drawn) [Example 167, {(3S,6R)-6-[2-(3-{[3,3-bis(4-fluoro-phenyl)propanoyl]amino}-5-fluoropyridin-4-yl)ethyl]morpholin-3-yl}methyl [2,2,2-trifluoro-1-(hydroxymethyl)ethyl] carbamate]	1.5	1250
N[C@H](C(=O)Nc1cc(F)cc(F)c1OC[C@@H]1CN[C@H](COC(=O)NCC(F)(F)F)CO1)C(c1ccc(F)cc1)c1ccc(F)cc1 [Example 245, N-(3,5-difluoro-2-{[(2S,5S)-5-({[(2,2,2-trifluoroethyl)carbamoyl]oxy}methyl)morpholin-2-yl]methoxy}phenyl)-4-fluoro-β-(4-fluorophenyl)-L-phenylalaninamide]	16	360
O=C(C[C@H](c1ccc(F)cc1)c1ccc(Cl)cc1)Nc1cccc(F)c1CC[C@@H]1CN[C@H](COC(=O)NCC(F)(F)F)CO1 [Example 154, {(3S,6R)-6-[2-(2-{[(3R)-3-(4-chlorophenyl)-3-(4-fluorophenyl)propanoyl]amino}-6-fluoro-phenyl)ethyl]morpholin-3-yl}methyl (2,2,2-trifluoroethyl)carbamate]	5.1	150
N[C@H](C(=O)Nc1cccc(F)c1CC[C@@H]1CN[C@H](COC(=O)NCC(F)(F)F)CO1)[C@@H](c1ccc(F)cc1)c1cc(F)cc(F)c1 [Example 251, (βS)-3,5-difluoro-β-(4-fluorophenyl)-N-(3-fluoro-2-{2-[(2R,5S)-5-({[(2,2,2-trifluoroethyl)carbamoyl]oxy}methyl)morpholin-2-yl]ethyl}phenyl)-L-phenylalaninamide]	8.2	32
N[C@H](C(=O)Nc1cncc(F)c1CC[C@@H]1CN[C@H](COC(=O)NCc2nc3ccncc3[nH]2)CO1)C(c1ccc(F)cc1)c1ccc(F)cc1 [Example 242, 4-fluoro-N-(5-fluoro-4-{2-[(2R,5S)-5-({[(3H-imidazo[4,5-c]pyridin-2-ylmethyl)carbamoyl]oxy}methyl)morpholin-2-yl]ethyl}pyridin-3-yl)-β-(4-fluorophenyl)-L-phenylalaninamide]	25	600
